Patent US12446577B2 (priority 2018, dated 2025)
Where two headings read alike, the source gives them in different places.

Assays:
[1] = test system: lettuce plants; experiment: Phytotoxicity on lettuce plants after spraying; type: in vivo; details: 2.5% pelargonic acid, sprayed until run-off, n = 6, scale 0 to 100%
Description: A neutralization reaction was made with pelargonic acid (>97%) and choline hydroxide (45%) based on the titration curve (FIG. 1). Based on the titration curve, a stock solution of choline pelargonate (29.1% PLA (>97%) and 40.4% Choline hydroxide (45%)) was made by mixing 14.55 mL pelargonic acid with 15.25 mL distilled water and afterwards the addition of 20.2 mL choline hydroxide. The choline pelargonate stock solution was diluted in distilled water to obtain a diluted choline pelargonate composition comprising about 2.5% pelargonic acid. The total concentration of choline pelargonate in the water spray solution was 37.08 g a.i./L (a.i.=active ingredient).
The next step was to assess the phytotoxicity of a composition comprising choline pelargonate on lettuce plants. As a control, plants were treated with water. The plants were also treated with a diluted pelargonic acid composition, including a diluted pelargonic acid solution based on the commercial product Beloukha (Belchim Crop Protection).
Lettuce plants were sprayed with a small hand sprayer until run-off with the respective compositions and incubated at 20° C. Each composition was tested with a setup consisting out of six plants. A visual assessment was made on lettuce plants after spraying. The effect of phytotoxicity (necrosis or discolouration) was scored by a scale from 0 to 100%, with 0% no phytotoxicity and 100% fully phytotoxicity on plants.

[2] = test system: Alternaria solani; experiment: Mycelium growth inhibition on PDA (Example 2); type: cell-based; details: 6 days at 25° C; for Average mycellium diameter: n = 4; for % inhibition of the pathogens: vs untreated PDA
Description: (§1) Strains used for this trial (Table 3) were kept and refreshed on Potato Dextrose Agar (PDA) at 25° C.
(§2) In a first setup, a test composition was directly added to PDA (about 20 mL/petri dish) (Table 4). Plugs of agar (diameter 8 mm) from two week-old cultures were placed at the center of the PDA plates. Each test was performed in 4 repetitions. The petri dishes were then incubated at 25° C. After 6 days of incubation, the diameter of the colonies was measured in 2 perpendicular directions. The percentage of inhibition was calculated for each tested composition and compared to the untreated PDA.

[3] = test system: Botrytis cinerea (grapevine); experiment: Mycelium growth inhibition on PDA (Example 2); type: cell-based; details: 6 days at 25° C; for Average mycellium diameter: n = 4; for % inhibition of the pathogens: vs untreated PDA
Description: as §1, §2

[4] = test system: Botrytis cinerea (lettuce); experiment: Mycelium growth inhibition on PDA (Example 2); type: cell-based; details: 6 days at 25° C; for Average mycellium diameter: n = 4; for % inhibition of the pathogens: vs untreated PDA
Description: as §1, §2

[5] = test system: Colletotrichum coccodes; experiment: Mycelium growth inhibition on PDA (Example 2); type: cell-based; details: 6 days at 25° C; for Average mycellium diameter: n = 4; for % inhibition of the pathogens: vs untreated PDA
Description: as §1, §2

[6] = test system: Fusarium graminearum; type: cell-based; details: 6 days at 25° C; for Average mycellium diameter: n = 4; for % inhibition of the pathogens: vs untreated PDA
[7] = test system: Phytophthora infestans; type: in vivo; details: 1 min dip, 7 days of incubation; for Lesion Size: n = 5
[8] = test system: Bintje leaflets; experiment: Phytotoxicity symptoms on dipped potato leaflets (Example 4); type: in vivo; details: highest concentration (10 L/ha), 7 days
[9] = test system: Botrytis cinerea; experiment: Mycelium growth inhibition on PDA (Example 7); type: cell-based; details: 3 days at 25° C; for Average mycelium diameter: n = 4
Description: (§3) Strains used for this trial were kept and refreshed on Potato Dextrose Agar (PDA) at 25° C.
(§4) To begin, a quantity of test product was directly added in a certain volume of PDA (about 20 mL/petri dish) (Table 11). Plugs of agar (diameter 10 mm) from one week-old cultures were placed at the centre of the PDA plates. Each object was performed in 4 repetitions. The petri dishes were then incubated at 25° C. in the dark. After 3 and 6 days of incubation, the diameter of the colonies was measured in 2 perpendicular directions. The percentage of inhibition was calculated for each product/concentration compare to the untreated.

[10] = test system: Pythium ultimum; experiment: Mycelium growth inhibition on PDA (Example 7); type: cell-based; details: 3 days at 25° C; for Average mycelium diameter: n = 4
Description: as §3, §4

[11] = test system: Rhizoctonia solani; experiment: Mycelium growth inhibition on PDA (Example 7); type: cell-based; details: 3 days at 25° C; for Average mycelium diameter: n = 4
Description: as §3, §4

[12] = test system: Sclerotinia sclerotiorum; experiment: Mycelium growth inhibition on PDA (Example 7); type: cell-based; details: 3 days at 25° C; for Average mycelium diameter: n = 4
Description: as §3, §4

[13] = test system: powdery mildew on apple; experiment: Trial on potted apple trees against powdery mildew; type: in vivo; details: day 85; weekly sprays (TMAP 10 mL/L; Chemical per Table 13/14); 1000 leaves per object
Excerpt: (§5) During the third week of March 2017, 60 branched apple trees (rootstock M9—clone Golden B) of 2 years were transplanted from a local nursery into pots (pot: 12 Liters). The 60 potted apple plants were maintained outside the greenhouse in S. Michele all′Adige (Trento). Plants were maintained divided in 3 blocks. Each block was composed of 20 plants arranged in two rows (See scheme 1). Plants were watered through a drip irrigation system once or twice a week according to the weather conditions. The insecticidal treatments were applied uniformly on all the experimental plants. Two of the three objects were treated against powdery mildew in accordance with the foreseen spray scheme: Chemical treatments, TMAP alone, untreated. One object was maintained Untreated as reference. For the “Chemical” object, different active ingredients were used alone or in combination (Table 13).
The treatments were performed at the same time, and timings of spray were done weekly and according to the weather conditions. […]
Powdery mildew: 5 shoots per each plant were randomly selected and labeled for the assessments. The assessment on powdery mildew was done on day 85, ten leaves of each shoot were singularly evaluated for the presence of symptoms, 5 marked shoots per plant were assessed. […]
Data of powdery mildew incidence were analyzed using the Statistica 13.1 software.

[14] = test system: apple trees; experiment: Phytotoxicity on apple trees in the powdery mildew trial; type: in vivo; details: repeated applications during the season, 10 mL/L
Excerpt: as §5
The treatments were performed at the same time, and timings of spray were done weekly and according to the weather conditions. The applications were done with a pressurized hand sprayer (water volume 1.5-2 L per object).

[15] = test system: Powdery Mildew (Podosphaera xanthii); experiment: Single leaf test powdery mildew on zucchini; details: zucchini leaf N sprayed with 0.8% in water; 8 days after the treatment
Description: Single leaf test Powdery Mildew (Podosphaera xanthii). A zucchini plant was selected with a powdery mildew infection on old leaves. In addition to a leaf showing the first signs of infection of powdery mildew (leaf N−1), two leaves without infection (leaf N and N+1) were selected.
Leaves (N+1) and (N−1) were left untreated. The fungal infection was assessed 8 days after the treatment.

[16] = dose rate 1 L·kg/ha (0.2 mL in 100 mL water)
[17] = dose rate 10 L·kg/ha (2 mL in 100 mL water)

CCCCCCCCC(=O)[O-].C[N+](C)(C)CCO [Choline pelargonate, choline pelargonate]
Phytotoxicity (%) evaluation on lettuce plants ([1]; 0 DAA): 0.00% | Phytotoxicity (%) evaluation on lettuce plants ([1]; 1 DAA): 1.33% | Phytotoxicity (%) evaluation on lettuce plants ([1]; 2 DAA): 1.67% | Phytotoxicity (%) evaluation on lettuce plants ([1]; 7 DAA): 3.50% | Average mycellium diameter ([2]; 0.36% AI in PDA): 0.0 ± 0.0 mm | % inhibition of the pathogens ([2]; 0.36% AI in PDA): 100% | Average mycellium diameter ([2]; 3.6% AI in PDA): 0.0 ± 0.0 mm | % inhibition of the pathogens ([2]; 3.6% AI in PDA): 100% | Average mycellium diameter ([3]; 0.36% AI in PDA): 0.0 ± 0.0 mm | % inhibition of the pathogens ([3]; 0.36% AI in PDA): 100% | Average mycellium diameter ([3]; 3.6% AI in PDA): 0.0 ± 0.0 mm | % inhibition of the pathogens ([3]; 3.6% AI in PDA): 100% | Average mycellium diameter ([4]; 0.36% AI in PDA): 0.0 ± 0.0 mm | % inhibition of the pathogens ([4]; 0.36% AI in PDA): 100% | Average mycellium diameter ([4]; 3.6% AI in PDA): 0.0 ± 0.0 mm | % inhibition of the pathogens ([4]; 3.6% AI in PDA): 100% | Average mycellium diameter ([5]; 0.36% AI in PDA): 0.0 ± 0.0 mm | % inhibition of the pathogens ([5]; 0.36% AI in PDA): 100% | Average mycellium diameter ([5]; 3.6% AI in PDA): 0.0 ± 0.0 mm | % inhibition of the pathogens ([5]; 3.6% AI in PDA): 100% | Average mycellium diameter ([6]; 0.36% AI in PDA): 17.6 ± 21.1 mm | % inhibition of the pathogens ([6]; 0.36% AI in PDA): 77% | Average mycellium diameter ([6]; 3.6% AI in PDA): 0.0 ± 0.0 mm | % inhibition of the pathogens ([6]; 3.6% AI in PDA): 100% | Efficacy (%) (Abbott) [7, 16]: 84.9% | Lesion Size [7, 16]: 0.41 ± 0.57 cm^2 | Efficacy (%) (Abbott) [7, 17]: 100.0% | Lesion Size [7, 17]: 0.00 ± 0.00 cm^2 | phytotoxicity symptoms on leaflets [8]: some minor phytoxicity symptoms on the edge and stem | % efficacy compared to control (Abbott) ([9]; 0.042% a.i. in PDA): 98% | Average mycelium diameter ([9]; 0.042% a.i. in PDA): 0.9 ± 1.8 mm | % efficacy compared to control (Abbott) ([9]; 0.42% a.i. in PDA): 100% | Average mycelium diameter ([9]; 0.42% a.i. in PDA): 0.0 ± 0.0 mm | % efficacy compared to control (Abbott) ([10]; 0.042% a.i. in PDA): 100% | Average mycelium diameter ([10]; 0.042% a.i. in PDA): 0.0 ± 0.0 mm | % efficacy compared to control (Abbott) ([10]; 0.42% a.i. in PDA): 100% | Average mycelium diameter ([10]; 0.42% a.i. in PDA): 0.0 ± 0.0 mm | % efficacy compared to control (Abbott) ([11]; 0.042% a.i. in PDA): 67% | Average mycelium diameter ([11]; 0.042% a.i. in PDA): 17.1 ± 1.9 mm | % efficacy compared to control (Abbott) ([11]; 0.42% a.i. in PDA): 100% | Average mycelium diameter ([11]; 0.42% a.i. in PDA): 0.3 ± 0.5 mm | % efficacy compared to control (Abbott) ([12]; 0.042% a.i. in PDA): 98% | Average mycelium diameter ([12]; 0.042% a.i. in PDA): 1.4 ± 0.5 mm | % efficacy compared to control (Abbott) ([12]; 0.42% a.i. in PDA): 100% | Average mycelium diameter ([12]; 0.42% a.i. in PDA): 0.0 ± 0.0 mm | disease incidence (percentage of infected leaves) [13]: 25.5% | symptoms of phytotoxicity on the plants [14]: no symptoms of phytotoxicity | surface of leaf covered by powdery mildew [15]: less than 5%
